Measured values reported in article PMC11582173, “Synthesis, cytotoxicity, anti-inflammatory, anti-metastatic and anti-oxidant activities of novel chalcones incorporating 2-phenoxy-N-arylacetamide and thiophene moieties: induction of apoptosis in MCF7 and HEP2 cells” (Naunyn-Schmiedeberg's Archives of Pharmacology, 2024).

Columns and labels:
[1] = system: human Lung carcinoma (A549) cells; test: SRB cytotoxic assay, A549; format: cell-based; conditions: single dose 100 µg/mL, 48 h, read-out: %Inhibition at100 µg/mL A549
Method: (§1) All the prepared compounds were screened at a concentration of 100 µg/mL against six different human cell lines: human laryngeal carcinoma (HEP2), human colorectal carcinoma (HCT116), human breast carcinoma (MCF7), human Lung carcinoma (A549), human liver carcinoma (HEPG2), and normal African Green monkey kidney cell line (VERO). Doxorubicin was used as a positive control for comparison purposes.
(§2) The human laryngeal carcinoma (HEP2), colorectal carcinoma (HCT116), breast carcinoma (MCF7), Lung carcinoma (A549), liver carcinoma (HEPG2), and normal African Green monkey kidney cell line (VERO) were purchased from American Tissue Culture Collection (Rockville, MD, USA). The cells were treated for 48 h with a single dose (100 µg/mL) of all the tested chalcones. […] In brief, the cells were seeded in a 96-well microtiter plate at a concentration of 5×10^3 cells/well in 100 µL fresh RPMI-1640 medium and left to attach to the plates for 24 h. Then, cells were incubated with 100 μL of different concentrations (50, 25, 12.5, 6.25, and 0.0 µg/mL) of 5c in triplicate at 37 °C for 48 h. After that, the cells were fixed with 10 µL cold 100% Trichloroacetic acid (TCA) for 1h at 4 °C. The wells were then washed 1 time with distilled water using (automatic Tecan washer, Germany) and stained for 30 min at room temperature with 50 µL 0.4% SRB dissolved in 1% acetic acid. The plates were air-dried and the dye was solubilized with 100 µl/well of 1M tris base (pH 10.5) for 5 min. The optical density (O.D.) of each well was measured spectrophotometrically at 570 nm with an ELISA microplate reader (Sunrise Tecan reader, Germany) with automatic shaking for 30 seconds before reading. The mean background absorbance was subtracted automatically and mean values for each drug concentration were calculated. The percentage of cell survival was calculated as follows: Survival fraction= O.D. (treated cells)/ O.D. (control cells) (Bhat et al. [2023]).

[2] = system: human liver carcinoma (HEPG2) cells; test: SRB cytotoxic assay, HEPG2; format: cell-based; conditions: single dose 100 µg/mL, 48 h, read-out: %Inhibition at100 µg/mL HEPG2
Method: as §1, §2

IL-6 gene = test: Real-time PCR, IL-6 gene expression; format: cell-based, human; conditions: relative to untreated control (1)
Method: The expression level of the following six genes (Ki-67, Survivin, Interleukin-1 beta (IL-1B), Interleukin-6 (IL-6), Cyclooxygenase-2 (COX-2) and protein kinase B (AKT1)) was determined in MCF7 and HEP2 treated with the IC50 of compound 5c. The untreated cells were used as a negative control for comparison purposes. […] Ki-67 is a popular proliferation marker for human tumor cells. […] Survivin is an inhibitor of apoptotic protein (IAP) family member, which is essential for cell division. The lowering of the expression of survivin inhibited tumor development, triggered apoptosis, and made tumor cells more susceptible to radiation and chemotherapy (Albadari and Li [2023]). […] IL-1B is a pleiotropic mediator of inflammation, which is produced in response to a variety of stressors (Aarreberg et al. [2019]). […] IL-6 is a pro-inflammatory cytokine that plays a significant role in the proliferation and differentiation of human cells. It promotes the production of numerous proteins involved in acute inflammation (Uciechowski and Dempke [2020]). […]
The expression level of the following six genes (Ki-67, survivin, AKT1, IL-6, COX2, and IL-1B) was examined using real-time polymerase chain reaction (qPCR) (Mohamed et al. [2023a]). […] The cycle threshold (Ct) was determined automatically. […]

COc1ccc(NC(=O)COc2ccc(C=CC(=O)c3cccs3)cc2)cc1 [Compound 5c, N-(4-Methoxyphenyl)-2-(4-(3-oxo-3-(thiophen-2-yl)prop-1-en-1-yl)phenoxy)acetamide]
inhibition at 100 µg/mL [1]: 65 ± 2.1%
inhibition at 100 µg/mL [2]: 67 ± 1.6%
IL-6 expression folding (IL-6 gene; HEP2 cells treated with IC50 of 5c): 0.464±0.08 fold
IL-6 expression folding (IL-6 gene; MCF7 cells treated with IC50 of 5c): 0.814±0.079 fold
